Where a SMILES comes first, the peptide text is derived from it.
Assays:
[1] = Formulation stability, saline vs saline with 0.1% Tween-80; type: physicochemical; settings: 0.5-5000 pmol/µL, 60 min, room temperature (25 °C), polypropylene tubes, LC-MS, n = 3
Experimental: (§1) Adhesiveness to inert materials was measured for ALOS4 0.9% NaCl(aq) solution in concentrations of 1, 3 10, 30, or 100 µM and incubated in standard laboratory polypropylene microtubes for 60 min at room temperature. Solutions were transferred to either polypropylene LC vials or borosilicate glass LC vials. Optimal formulation stability of ALOS4 was analyzed in either saline solution (0.9% NaCl) or saline solution containing 0.1% tween 80 (polysorbate; Sigma-Aldrich, Cat#P1754, Darmstadt, Germany) at concentrations of 0.5, 5, 50, 500, or 5000 pmol/µL. Solutions were incubated in standard polypropylene tubes for 60 min at room temperature. Acid/base stability was measured for ALOS4 formulated in saline at a concentration of 10 µM and incubated for 1 or 24 h at 3.4, 4.4, 5.4, 6.4, 7.4, or 9.4 pH at temperatures of 4, 25, or 37 °C. Recovery of ALOS4 following these materials assays was assessed by LC-MS.

[2] = Acid/base and temperature stability; type: physicochemical; settings: 10 µM in saline, pH 3.4, 4.4, 5.4, 6.4, 7.4, 9.4; 4, 25, 37 °C; 1 or 24 h; polypropylene tubes, LC-MS, n = 3
Experimental: as §1

[3] = test system: ICR mice; assay: Open field test; type: in vivo
Experimental: To evaluate the effect of ALOS4 on mouse locomotor activity, we used the open field (OF) behavioral test. This assay consists of an arena (30 × 40 cm) with no grid markings and uses an infrared imaging system. […] Each mouse was placed individually in the center of the arena and evaluated for 6 min. Arena center dwell time versus arena border dwell time, as well as total traveled distance, were recorded.

[4] = test system: ICR mice; assay: Complete blood count after single IV dose; type: in vivo; settings: for RBC / HGB / MCH / MCHC / Hematocrit / MCV / Platelets / WBC: mean, n = 5; for RBC: normal range 7.31–10.03; for HGB: normal range 13.1–16.2; for MCH: normal range 15–18; for MCHC: normal range 33.7–36.4; for Hematocrit: normal range 36.8–48.7; for MCV: normal range 46.0–50.9; for Platelets: normal range 674–1675; for WBC: blood 24 h post-injection, normal range 6.5–24.5
Experimental: (§2) ICR mice were treated with single IV injections of ALOS4 (30, 90, or 180 mg/kg) and blood samples were collected at 24 h post-injection to EDTA and serum tubes. Complete blood cell count (CBC) and blood chemistry analyses were performed for saline and ALOS4 treatment groups at a certified animal laboratory (Herzliya Medical Center, Herzliya, Israel).

[5] = test system: ICR mice; assay: Plasma biochemistry after single IV dose; type: in vivo; settings: 24 h, mean, n = 5; for Total Bilirubin: normal range 0.16–0.32; for Creatinine: normal range 0.2–0.4; for Globulin: normal range 1.4–2.0; for Alb: normal range 3.3–4.0; for TP: normal range 4.7–5.8; for Phosphorus: normal range 6.4–11.3; for Calcium: normal range 9.8–10.8; for Urea: normal range 39–62; for Cholesterol: normal range 56–133; for Glucose: normal range 169–282
Experimental: as §2

[6] = test system: ICR mice; assay: Repeated IV dose toxicity assessment in cancer-free ICR mice
Experimental: Acute single or repeated doses of ALOS4 at 10, 30, 90, 180, or 360 mg/kg were administered intravenously to uninoculated (nominally cancer-free) ICR mice. Body weight, rectal temperature, and survival were evaluated for 14 days following injections. Mice were also evaluated for locomotory and anxiety-like behaviors (open-field and EPM) on treatment day 14.

In the case of `CC(C)C[C@@H]1NC(=O)[C@H](CO)NC(=O)CNC(=O)[C@H](C)NC(=O)[C@H](CO)NC(=O)[C@H](CO)NC(=O)[C@@H](N)CSSC[C@@H](C(=O)O)NC(=O)[C@H](Cc2ccccc2)NC1=O` [ALOS4, H-cycl(Cys-Ser-Ser-Ala-Gly-Ser-Leu-Phe-Cys)-OH] (HELM PEPTIDE1{C.S.S.A.G.S.L.F.C}$PEPTIDE1,PEPTIDE1,1:R3-9:R3$$$V2.0), the “reduction of peptide stability in saline containing 0.1% Tween-80 vs 0.9% NaCl only” value [1] is reported as 1.2 fold, the “stability (recoverability)” value [2] is reported as 90–100% and the “total traveled distance, open field” value ([3]; IV acute single dose 180 mg/kg, n = 5, Bonferroni p = 0.0329) is reported as “only an exception for total traveled distance”. For the same molecule, the “locomotor activity, open field” value ([3]; IV acute single dose 30, 90, 180 mg/kg, n = 5, central arena dwell time) was “did not affect locomotor activity in general”, the “decrease in WBC count” value ([4]; ICR mice, single IV 180 mg/kg, 24 h) was 40% and the RBC ([4]; single IV 30 mg/kg, 24 h) was 9.16 ± 0.3 10^6/µL. It also gave an HGB ([4]; single IV 30 mg/kg, 24 h) of 14.3 ± 0.6 g/dL, an MCH ([4]; single IV 30 mg/kg, 24 h) of 15.6 ± 0.2 pg and an MCHC ([4]; single IV 30 mg/kg, 24 h) of 32.54 ± 0.23 g/dL. For the same molecule, the Hematocrit ([4]; single IV 30 mg/kg, 24 h) was 43.96 ± 1.9%, the MCV ([4]; single IV 30 mg/kg, 24 h) was 47.96 ± 0.6 fL and the Platelets ([4]; single IV 30 mg/kg, 24 h) was 582.4 ± 132 10^3/µL. For the same molecule, the WBC ([4]; single IV 30 mg/kg) was 4.51 ± 1.3 10^3/µL, the RBC ([4]; single IV 90 mg/kg, 24 h) was 9.78 ± 0.3 10^6/µL and the HGB ([4]; single IV 90 mg/kg, 24 h) was 15.42 ± 0.5 g/dL. It also gave an MCH ([4]; single IV 90 mg/kg, 24 h) of 15.76 ± 0.15 pg, an MCHC ([4]; single IV 90 mg/kg, 24 h) of 32.2 ± 0.4 g/dL and a Hematocrit ([4]; single IV 90 mg/kg, 24 h) of 47.88 ± 1.1%. For the same molecule, the MCV ([4]; single IV 90 mg/kg, 24 h) was 48.96 ± 0.24 fL, the Platelets ([4]; single IV 90 mg/kg, 24 h) was 770.2 ± 189 10^3/µL and the WBC ([4]; single IV 90 mg/kg) was 6.07 ± 1.2 10^3/µL. For the same molecule, the RBC ([4]; single IV 180 mg/kg, 24 h) was 8.02 ± 0.6 10^6/µL, the HGB ([4]; single IV 180 mg/kg, 24 h) was 13.2 ± 1.04 g/dL and the MCH ([4]; single IV 180 mg/kg, 24 h) was 16.42 ± 0.2 pg. It also gave an MCHC ([4]; single IV 180 mg/kg, 24 h) of 32.88 ± 0.4 g/dL, a Hematocrit ([4]; single IV 180 mg/kg, 24 h) of 40.12 ± 3.15% and an MCV ([4]; single IV 180 mg/kg, 24 h) of 49.96 ± 0.32 fL. The Platelets ([4]; single IV 180 mg/kg, 24 h) was 661.8 ± 160.5 10^3/µL, the WBC ([4]; single IV 180 mg/kg) was 3.2 ± 0.06 10^3/µL and the “Total Bilirubin” value ([5]; single IV 30 mg/kg) was 0.11 ± 0.02 mg/dL. It also gave a Creatinine ([5]; single IV 30 mg/kg) of 0.26 ± 0.014 mg/dL, a Globulin ([5]; single IV 30 mg/kg) of 1.87 ± 0.07 g/dL and an Alb ([5]; single IV 30 mg/kg) of 4.3 ± 0.14 g/dL. For the same molecule, the TP ([5]; single IV 30 mg/kg) was 6.17 ± 0.18 g/dL, the Phosphorus ([5]; single IV 30 mg/kg) was 8.6 ± 0.56 mg/dL and the Calcium ([5]; single IV 30 mg/kg) was 10.29 ± 0.11 mg/dL. It also gave a Urea ([5]; single IV 30 mg/kg) of 46.08 ± 1.7 mg/dL, a Cholesterol ([5]; single IV 30 mg/kg) of 108.2 ± 9.5 mg/dL and a Glucose ([5]; single IV 30 mg/kg) of 169.8 ± 6.9 mg/dL. The “Total Bilirubin” value ([5]; single IV 90 mg/kg) was 0.14 ± 0.02 mg/dL, the Creatinine ([5]; single IV 90 mg/kg) was 0.25 ± 0.06 mg/dL and the Globulin ([5]; single IV 90 mg/kg) was 2.02 ± 0.07 g/dL. It also gave an Alb ([5]; single IV 90 mg/kg) of 4.3 ± 0.06 g/dL, a TP ([5]; single IV 90 mg/kg) of 6.32 ± 0.13 g/dL and a Phosphorus ([5]; single IV 90 mg/kg) of 9.53 ± 0.4 mg/dL. The Calcium ([5]; single IV 90 mg/kg) was 10.38 ± 0.29 mg/dL, the Urea ([5]; single IV 90 mg/kg) was 48.23 ± 3.2 mg/dL and the Cholesterol ([5]; single IV 90 mg/kg) was 142.25 ± 13.7 mg/dL. For the same molecule, the Glucose ([5]; single IV 90 mg/kg) was 170.75 ± 10.7 mg/dL, the “Total Bilirubin” value ([5]; single IV 180 mg/kg) was 0.11 ± 0.03 mg/dL and the Creatinine ([5]; single IV 180 mg/kg) was 0.27 ± 0.02 mg/dL. It also gave a Globulin ([5]; single IV 180 mg/kg) of 1.59 ± 0.4 g/dL, an Alb ([5]; single IV 180 mg/kg) of 4.36 ± 0.024 g/dL and a TP ([5]; single IV 180 mg/kg) of 6.28 ± 0.09 g/dL. It also gave a Phosphorus ([5]; single IV 180 mg/kg) of 8.44 ± 0.75 mg/dL, a Calcium ([5]; single IV 180 mg/kg) of 10.42 ± 0.1 mg/dL and a Urea ([5]; single IV 180 mg/kg) of 46.02 ± 3.9 mg/dL. For the same molecule, the Cholesterol ([5]; single IV 180 mg/kg) was 141.8 ± 9.1 mg/dL, the Glucose ([5]; single IV 180 mg/kg) was 183.2 ± 14.3 mg/dL and the weight-gain ([6]; IV every other day over 21 days (ten doses), 10, 30, 90, 180, 360 mg/kg, n = 5, vs control) was “no alterations in weight-gain”. For the same molecule, the body temperature ([6]; IV every other day over 21 days, 10-360 mg/kg, rectal, 30 min after injection, n = 5) was “no alterations”, the “necropsy assessment for organ damage” value ([6]; histology of liver, spleen, kidney, lungs, brain, repeated IV 10-360 mg/kg) was “did not reveal any overt signs of tissue damage or inflammation” and the 21-day survival ([6]; maximum tested repeated IV dose 360 mg/kg, n = 5) was 100%. For the same molecule, the clinical signs ([6]; repeated IV 10-360 mg/kg) was “No adverse overt clinical signs were observed”.

Source: publication PMC8430629, “Anti-Cancer Effects of Cyclic Peptide ALOS4 in a Human Melanoma Mouse Model” (International Journal of Molecular Sciences, 2021)
